Experimental data published in patent US10973863B2, “Method for regulating, preventing and/or treating pulmonary injury” (SINPHAR PHARMACEUTICAL CO., LTD., priority 2017, dated 2021).

Legend:
MMP-9 = test: Gelatin zymography: LPS-activated active expression of MMP-9 in NR8383 cells; format: cell-based, rat; settings: LPS 1 μg/mL, 24 hours
From the text: As indicated above, when an inflammatory response occurs in animal's pulmonary tissue, the active inflammatory cells will secret MMPs that will destroy the pulmonary tissue structure, cause more serious pulmonary injury, and lead to the decrement in or the loss of pulmonary functions. […]
Thereafter, the medium of each group was collected and respectively subjected to the following procedures. A 10% polyacrylamide gel containing 0.2% gelatin was used to carry out the sodium dodecyl sulfate polyacrylamide gel electrophoresis (SDS-PAGE). After the electrophoresis was completed, the gel was sequentially soaked in 2.5% Triton X-100 solution for 90 minutes to remove SDS, soaked in distillation-distillation water (ddH2O) for 30 minutes, and placed in a reaction solution (50 mM Tris-HCl buffer containing 10 mM CaCl2 and 0.02% NaN3) at a temperature of 37° C. for 18 hours. After the foregoing reaction was completed, the gel was stained by a Coomassie blue staining solution, and the image of stained gel was taken and subjected to an image analysis. The image intensity (the image intensity was calculated based on the size of area and the shade of color) of highlight band (i.e., the gelatin in this area was degraded by MMPs, wherein the area locating around 95 kD molecular weight) on the gel of each group can reflect the active expression of MMP-9 of rat alveolar macrophage NR8383 cells under different conditions (the relative active expression of MMP-9 was calculated by serving the results of the blank group as 0% and serving that of the control group as 100%).
Rat alveolar macrophage NR8383 cells were divided into twenty-eight groups and separately cultivated with the following media for 24 hours: • (1) Blank group: a macrophage growth medium; • (2) Control group: a macrophage growth medium containing 1 μg/mL LPS; • (3) Positive control group: a macrophage growth medium containing 1 μg/mL LPS and 5 μM Prednisolone (a type of corticosteroid; abbreviated as “Pred”; purchased from Sigma-Aldrich); • (4) Extract C (including five sub-groups): a macrophage growth medium containing 1 μg/mL LPS and the extract C provided by [preparation example A-3-2], wherein the extract C is present in the five sub-groups at a concentration of […] respectively; • (5) Extract D (including five sub-groups): a macrophage growth medium containing 1 μg/mL UPS and the extract D provided by [preparation example A-4-2], wherein the extract D is present in the five sub-groups at a concentration of 0.78, 1.56, 3.13, 6.25 and 12.5 respectively; • (6) Extract E (including five sub-groups): a macrophage growth medium containing 1 μg/mL LPS and the extract E provided from [preparation example A-4-3], wherein the extract E is present in the five sub-groups at a concentration of 0.78, 1.56, 3.13, […], and 12.5 respectively; • (7) DATA group (including five sub-groups): a macrophage growth medium containing 1 μg/mL LPS and the dehydrotrametenolic acid (DTTA) provided by [preparation example C-1], wherein the dehydrotrametenolic acid (DTTA) is present in the five sub-groups at a concentration of 0.39, 0.78, 1.56, 3.13 and 6.25 μg/mL respectively; and • (8) PAA group (including live sub-groups): a macrophage growth medium containing 1 μg/mL LPS and the poricoic acid A (PAA) provided from [preparation example C-1], wherein the poricoic acid A (PAA) is present in the five sub-groups at a concentration of 6.25, 12.5, 25, 50 and 100 respectively.
Thereafter, the medium of each group was collected and analyzed by the analyzing procedures same as that of (1-1).

[1] = test system: TGFβ-induced intracellular accumulation of collagen in myofibroblast WI38 cells; test: Picrosirius red staining: TGFβ-induced collagen accumulation in WI38 cells; format: cell-based; settings: 1 ng/mL TGF-β
From the text: As indicated above, the hyperactive expression of MMPs will cause pulmonary injury. Under the most circumstances, the response mechanisms in animals will activate, for example, macrophages will secret TGF-β and TGF-β which can promote the lung fibroblasts to secret collagen, so that the damaged tissues can be recovered. However, the hypersecretion of collagen will also lead to lung fibrosis. To investigate whether FU-LING extracts and its active ingredients are effective in regulating, protecting and/or treating the pulmonary injury-related diseases such as lung fibrosis or not, the Picrosirius red (PSR) staining was conducted as a semi-quantification of collagen, so that the inhibitory rate of FU-LING extract and its active ingredients on the TGFβ-induced intracellular accumulation of collagen in myofibroblast WI38 cells can be determined.
Myofibroblast WI38 cells (purchased from ATCC, product no. CCL75™) were divided into ten groups and separately cultivated with the following media for 48 hours:
(1) Blank group: a myolibroblast growth medium;
(2) Control group: a myofibroblast growth medium containing 1 ng/mL TGF-β (purchased from R&D system);
(3) Positive control group: a myofibroblast growth medium containing 1 ng/mL TGF-β and 200 μg/mL Pirfenidone (abbreviated as “Pir”; purchased from Sigma-Aldrich);
(4) Extract A (including four sub-groups): a myofibroblast growth medium containing 1 ng/mL TGF-β and the extract A provided by [Preparation example A-2-2], wherein the extract A is present in the four sub-groups at a concentration of 12.5, 25, 50 and 100 μg/mL respectively; and
(5) Extract B (including three sub-groups): a myofibroblast growth medium containing 1 ng/ml, TGF-β and the extract B provided by [Preparation example A-2-3], wherein the extract B is present in the […] at a concentration of 12.5, 25 and 50 μg/mL respectively.
Thereafter, the media were replaced by methanol to fix the cells at a temperature of −20° C. for 1 to 2 hours. After that, the cells were washed with PBS, and then stained with 0.1% PSR staining agent (purchased from Sigma-Aldrich) at room temperature for 4 hours. The stained cells were washed with 0.1% acetic acid, and then lysed with 0.1N sodium hydroxide to provide a lysate. The OD540 (i.e., the absorbance at a wavelength of 540 nm) of the lysate was measured. OD540 value of each group represents the content of collagen in each group, reflecting the content of collagen in fibroblast WI38 cells under different circumstances (the relative content of collagen in each group was calculated by serving the result of blank group as 0% and serving the result of control group as 100%).
Myofibroblast WI38 cells were divided into twenty-eight groups and separately cultivated with the following media for 24 hours:
(1) Blank group: a myofibroblast growth medium;
(3) Positive control group; a myofibroblast growth medium containing 1 ng/mL TGF-β and 200 μg/mL Pirfenidone (abbreviated as “Pir”; purchased from Sigma-Aldrich);
(4) Extract C group (including five sub-groups): a myofibroblast growth medium containing 1 ng/mL TGF-β and the extract C provided by [preparation example A-3-2], wherein the extract C is present in the five sub-groups at a concentration of […], 6.25 and 12.5 μg/mL respectively;
(5) Extract D group (including five sub-groups): a myofibroblast growth medium containing 1 ng/mL TGF-β and the extract D provided by [preparation example A-4-2], wherein the extract D is present in the five sub-groups at a concentration of 0.78, 1.56, 3.13, 6.25 and 12.5 μg/mL respectively;
(6) Extract E group (including five sub-groups): a myofibroblast growth medium containing 1 ng/mL TGF-β and the extract E provided by [preparation example A-4-3], wherein the extract E is present in the five sub-groups at a concentration of 0.78, 1.56, 3.13, 6.25 and 12.5 μg/mL respectively; […]

With C=C(CC[C@@H](C(=O)O)[C@H]1[C@H](O)C[C@@]2(C)C3=CC[C@H]4C(C)(C)[C@@H](O)CC[C@]4(C)C3=CC[C@]12C)C(C)C [DTA, dehydrotumulosic acid] the “Relative active expression of MMP-9 (%)” value (MMP-9; Table 4, 3.13 μg/mL) was 79.7%, the “Relative active expression of MMP-9 (%)” value (MMP-9; Table 4, 6.25 μg/mL) was 83.9% and the “Relative active expression of MMP-9 (%)” value (MMP-9; Table 4, 12.5 μg/mL) was 80.7%.

In the case of CC(C)=CCC[C@@H](C(=O)O)[C@H]1CC[C@@]2(C)C3=CC[C@H]4C(C)(C)[C@@H](O)CC[C@]4(C)C3=CC[C@]12C [DTTA, dehydrotrametenolic acid], the “Relative content of collagen (%)” value ([1]; Table 7, 0.39 μg/mL, 24 hours) was 25%, the “Relative content of collagen (%)” value ([1]; Table 7, 0.78 μg/mL, 24 hours) was 100% and the “Relative content of collagen (%)” value ([1]; Table 7, 1.56 μg/mL, 24 hours) was 25%. The “Relative content of collagen (%)” value ([1]; Table 7, 3.13 μg/mL, 24 hours) was 53%, the “Relative content of collagen (%)” value ([1]; Table 7, 6.25 μg/mL, 24 hours) was 70% and the “Relative active expression of MMP-9 (%)” value (MMP-9; Table 5, 0.39 μg/mL) was 91%. The “Relative active expression of MMP-9 (%)” value (MMP-9; Table 5, 0.78 μg/mL) was 99%, the “Relative active expression of MMP-9 (%)” value (MMP-9; Table 5, 1.56 μg/mL) was 79% and the “Relative active expression of MMP-9 (%)” value (MMP-9; Table 5, 3.13 μg/mL) was 72%. The “Relative active expression of MMP-9 (%)” value (MMP-9; Table 5, 6.25 μg/mL) was 74%.

For C[C@@H]1C[C@H]2[C@@H]3CCC4=CC(=O)C=C[C@]4(C)[C@@]3(F)[C@@H](O)C[C@]2(C)[C@@]1(O)C(=O)CO [Dex, dexamethasone, reference compound], the “Relative active expression of MMP-9 (%)” value (MMP-9; Table 4, Dex 1 μM, blank 0%, control 100%) was 100%.

For Cc1ccc(=O)n(-c2ccccc2)c1 [Pir, Pirfenidone, reference compound], the “Relative content of collagen (%)” value ([1]; Table 6, Pir 200 μg/mL, 48 hours, blank 0%, control 100%) was 69% and the “Relative content of collagen (%)” value ([1]; Table 7, Pir 200 μg/mL, 24 hours, blank 0%, control 100%) was 0%.

With C[C@]12C=CC(=O)C=C1CC[C@@H]1[C@@H]2[C@@H](O)C[C@@]2(C)[C@H]1CC[C@]2(O)C(=O)CO [Pred, Prednisolone, reference compound] the “Effect on inhibiting the 1 μg/mL LPS-induced increment in active expression of MMP-9 (in words)” value (MMP-9; all tested concentrations) was “cannot inhibit” and the “Relative active expression of MMP-9 (%)” value (MMP-9; Table 5, Pred 5 μM, blank 0%, control 100%) was 97%.
